Test results reported in the supplement of paper PMC13380429.
± gives the standard deviation of the averaged measurements.

How the values were obtained:
Details in all cases: 72 h
[1] = system: U2OS; assay: drug sensitivity score (DSS) for viability; higher = more toxic; extreme values may be limits of the assay
[2] = system: Vero E6; assay: as above
[3] = system: Caco-2; assay: as above
[4] = system: HepG2; assay: as above
[5] = system: Calu-3; assay: as above
[6] = system: U2OS; assay: relative viability EC50 (midpoint between 100% and the lowest measured viability); higher = less toxic
[7] = system: Vero E6; assay: as above
[8] = system: Caco-2; assay: as above
[9] = system: HepG2; assay: as above
[10] = system: Calu-3; assay: as above
[11] = system: U2OS; assay: cell viability relative to DMSO; higher = less toxic
[12] = system: Vero E6; assay: as above
[13] = system: Caco-2; assay: as above
[14] = system: HepG2; assay: as above
[15] = system: Calu-3; assay: as above

Row | SMILES | drug sensitivity score [1] | drug sensitivity score [2] | drug sensitivity score [3] | drug sensitivity score [4] | drug sensitivity score [5] | relative viability EC50 [6] | relative viability EC50 [7] | relative viability EC50 [8] | relative viability EC50 [9] | relative viability EC50 [10] | cell viability ([11]; 1 nM) | cell viability ([11]; 10 nM) | cell viability ([11]; 100 nM) | cell viability ([11]; 1000 nM) | cell viability ([11]; 10000 nM) | cell viability ([12]; 1 nM) | cell viability ([12]; 10 nM) | cell viability ([12]; 100 nM) | cell viability ([12]; 1000 nM) | cell viability ([12]; 10000 nM) | cell viability ([13]; 1 nM) | cell viability ([13]; 10 nM) | cell viability ([13]; 100 nM) | cell viability ([13]; 1000 nM) | cell viability ([13]; 10000 nM) | cell viability ([14]; 1 nM) | cell viability ([14]; 10 nM) | cell viability ([14]; 100 nM) | cell viability ([14]; 1000 nM) | cell viability ([14]; 10000 nM) | cell viability ([15]; 1 nM) | cell viability ([15]; 10 nM) | cell viability ([15]; 100 nM) | cell viability ([15]; 1000 nM) | cell viability ([15]; 10000 nM)
1 | COc1cccc(CCc2ccccc2OCC(CN(C)C)OC(=O)CCC(=O)O)c1 (stereo not given) [sarpogrelate] | 0 | 0 | 0 | 0 | 0 | > 10 µM | > 10 µM | > 10 µM | > 10 µM | > 10 µM | 100% | 105% | 99.8% | 103% | 95.3% | 105% | 98.6% | 104% | 100% | 95.8% | 92.1% | 101% | 98.4% | 105% | 98.2% | 109% | 104% | 105% | 92.5% | 102% | 96.5% | 98.3% | 96.4% | 102% | 96.9%
2 | C=C[C@H]1CN2CC[C@H]1CC2C(OC(=O)OCC)c1ccnc2ccc(OC)cc12 (stereo in doubt) [quinine-ethyl-carbonate] | 0 | 0 | 0 | 0 | 0 | > 10 µM | > 10 µM | > 10 µM | > 10 µM | > 10 µM | 99.9% | 97.3% | 101% | 96.9% | 96.9% | 104% | 95.9% | 105% | 107% | 100% | 114% | 97.1% | 94.2% | 105% | 114% | 93.2% | 97.7% | 100% | 104% | 97.4% | 99.9% | 104% | 102% | 90.4% | 101%
3 | CNCCCOc1cc(F)c(-c2c(Cl)nc3ncnn3c2N[C@@H](C)C(F)(F)F)c(F)c1 [cevipabulin] | 18.1 | 17.9 | 13.7 | 22.9 | 12.5 | 0.121 µM | 0.241 µM | 0.1 µM | 0.0431 µM | 0.237 µM | 94.8% | 102% | 65.8% | 25.6% | 21% | 105% | 106% | 89.5% | 11.6% | 8.3% | 102% | 110% | 72.3% | 44.7% | 48.1% | 96.8% | 102% | 29.3% | 21.9% | 22.8% | 106% | 116% | 83.4% | 43.7% | 34.7%
4 | Cc1ccc2c(c1)C(=O)[C@]1(O)CCN(c3ccccc3)C1=N2 (racemic) [blebbistatin-(+/-)] | 0.05 ± 0.071 | 0.15 ± 0.21 | 0.3 ± 0.42 | 0 | 0 | > 10 µM | > 10 µM | > 10 µM | > 10 µM | > 10 µM | 99.4 ± 1.6% | 101.2 ± 0.78% | 97.8 ± 1.8% | 99.85 ± 0.35% | 95.2 ± 12% | 98.6 ± 0.99% | 96.6 ± 4.5% | 96.4 ± 4.4% | 95.5 ± 3.9% | 93.4 ± 10% | 100 ± 2.5% | 97.25 ± 0.49% | 97.9 ± 2.1% | 98.5 ± 1.1% | 94.2 ± 16% | 98 ± 1.3% | 88.2 ± 0.92% | 98.3 ± 8.3% | 89 ± 9.6% | 96 ± 7% | 99 ± 11% | 95.9 ± 0.28% | 95.5 ± 10% | 109 ± 3.2% | 136 ± 9.8%
5 | CC(=O)N(CC(O)CO)c1c(I)c(C(=O)NCCO)c(I)c(C(=O)NCC(O)CO)c1I (stereo not given) [ioxilan] | 0 | 0 | 0 | 0 | 0 | > 10 µM | > 10 µM | > 10 µM | > 10 µM | > 10 µM | 97.1% | 97.1% | 101% | 92.8% | 102% | 113% | 103% | 93% | 106% | 101% | 103% | 91.6% | 93.6% | 90.5% | 90.6% | 105% | 101% | 86% | 109% | 90.8% | 105% | 96.9% | 99.7% | 101% | 88.9%
6 | C#Cc1cccc(Nc2ncnc3cc(OC)c(OCCCCCCC(=O)NO)cc23)c1 [CUDC-101] | 9.6 | 8.2 | 5.4 | 14.7 | 14.1 | 1.41 µM | 1.67 µM | 1.55 µM | 0.548 µM | 0.419 µM | 97.7% | 99.6% | 93.4% | 68.5% | 2% | 98.6% | 96% | 94.6% | 80.2% | 8.4% | 97% | 89.7% | 90.6% | 81.8% | 39.6% | 96.3% | 110% | 94.9% | 25.7% | 0.1% | 96.7% | 98.8% | 81.5% | 37.2% | 9%
7 | NCC(=O)O [AZD4282] | 0 | 0 | 0 | 0 | 0 | > 10 µM | > 10 µM | > 10 µM | > 10 µM | > 10 µM | 93.7% | 96.7% | 100% | 98.9% | 102% | 102% | 103% | 99.3% | 104% | 100% | 99% | 104% | 86.4% | 99.7% | 103% | 95.3% | 96% | 96.6% | 102% | 101% | 86.3% | 101% | 96.3% | 102% | 97.3%
8 | Fc1ccc(-c2c3cccc(C(F)(F)F)c3nn2Cc2ccc(F)cc2Cl)cc1 [LXR-623] | 0 | 0 | 0.2 | 1.9 | 0 | > 10 µM | > 10 µM | > 10 µM | > 10 µM | > 10 µM | 102% | 98.2% | 102% | 97.1% | 97.4% | 105% | 105% | 102% | 98% | 98.6% | 102% | 92% | 94.5% | 96.5% | 83.2% | 95.5% | 94.4% | 87.9% | 90.2% | 77.2% | 101% | 97.3% | 97% | 93.7% | 91.2%
9 | CCOC(=O)[C@@H](C)Oc1ccc(Oc2nc3ccc(Cl)cc3o2)cc1 [fenoxaprop-p-ethyl] | 0 | 0 | 0 | 0 | 0 | > 10 µM | > 10 µM | > 10 µM | > 10 µM | > 10 µM | 101% | 97.9% | 97.3% | 101% | 99.8% | 96.8% | 92.2% | 93.8% | 101% | 115% | 102% | 100% | 103% | 101% | 97.2% | 97.9% | 102% | 103% | 101% | 108% | 105% | 99% | 113% | 110% | 112%
10 | CCCCOc1cc(CC2CNC(=O)N2)ccc1OC (stereo not given) [Ro-20-1724] | 0 | 0 | 0 | 0.1 | 0 | > 10 µM | > 10 µM | > 10 µM | > 10 µM | > 10 µM | 96.3% | 102% | 95.2% | 107% | 102% | 95.4% | 94.8% | 101% | 95.1% | 99.1% | 97.3% | 96.8% | 102% | 103% | 110% | 101% | 91.6% | 105% | 91.1% | 89.5% | 97.1% | 105% | 104% | 108% | 96.8%
11 | COc1cc2c(cc1OC)C1CC(=O)C(CC(C)C)CN1CC2 (stereo not given) [tetrabenazine] | 0 | 0 | 0 | 0 | 0 | > 10 µM | > 10 µM | > 10 µM | > 10 µM | > 10 µM | 95.9% | 99.3% | 94.7% | 93.9% | 103% | 96.6% | 97.8% | 96.2% | 99.1% | 95% | 97.6% | 99.3% | 96.3% | 96.5% | 100% | 95.1% | 99.4% | 98.8% | 99.9% | 105% | 107% | 103% | 96.3% | 105% | 104%
12 | C[C@H]1O[C@@H](O[C@H]2CC[C@@]3(C)[C@H](CC[C@@H]4[C@@H]3C[C@@H](O)[C@]3(C)[C@@H](C5=CC(=O)OC5)CC[C@]43O)C2)C[C@H](O)[C@@H]1O[C@H]1C[C@H](O)[C@H](O[C@H]2C[C@H](O)[C@H](O[C@@H]3O[C@H](CO)[C@@H](O)[C@H](O)[C@H]3O)[C@@H](C)O2)[C@@H](C)O1 [deslanoside] | 18 | 28.7 | 18.5 | 16.7 | 14 | 0.258 µM | 0.0401 µM | 0.131 µM | 0.266 µM | 0.356 µM | 101% | 98.9% | 93.2% | 5.9% | 10.9% | 96.7% | 94.3% | 14.8% | 1.5% | 1% | 98.3% | 95% | 69.8% | 18.6% | 20% | 89.4% | 92.9% | 76.2% | 25.5% | 6.7% | 102% | 97.2% | 94.2% | 28.1% | 19.1%
13 | CC1=NN=C(c2ccc(N)cc2)c2cc3c(cc2C1)OCO3 | 0 | 0 | 0.4 | 0 | 0 | > 10 µM | > 10 µM | > 10 µM | > 10 µM | > 10 µM | 93.3% | 93.9% | 99.3% | 96.8% | 94% | 94.5% | 102% | 98.4% | 104% | 100% | 95.7% | 100% | 107% | 102% | 81% | 109% | 93.2% | 104% | 97.9% | 106% | 107% | 88.2% | 103% | 87.6% | 95.1%
